Experimental data: patent US10381110B2, “Molecules” (University of Dundee, priority 2010, dated 2019)
Where a name gives a salt, the structure may show the parent alone. Read-outs that look alike come from different tables or passages of the source.

What was measured:
[1] = biological target: T1, dopamine D2 (Homo sapiens, UniProt P14416); experiment: Primary radioligand binding assay (NIMH PDSP); conditions: primary radiobinding assay, [3H]N-methylspiperone; for D4 (% inh): test concentration or dose not given here
[2] = biological target: 5-HT7 (Homo sapiens, UniProt P34969); experiment: Secondary radioligand binding assay (Ki)
Procedure: (§1) Assay Buffer: Standard Binding Buffer (50 mM Tris-HCl, 10 mM MgCl2, 1 mM EDTA, pH 7.4)
(§2) Membrane Fraction Source: Transiently or stably transfected cell lines (e.g., HEK293, COS, CHO, NIH3T3)
(§3) Radioligand is diluted to five times the assay concentration (see Table 18) in Standard Binding Buffer. Typically, the assay concentration of radioligand is a value between one half the KD and the KD of a particular radioligand at its target. 50 μl aliquots of radioligand are dispensed into the wells of a 96-well plate containing 100 μl of Standard Binding Buffer. Then, duplicate 50 μl aliquots of the test and reference compound dilutions are added.
(§4) The 250 μl reactions are incubated at room temperature and shielded from light (to prevent photolysis of light-sensitive ligands) for 1.5 hours, then harvested by rapid filtration onto Whatman GF/B glass fiber filters pre-soaked with 0.3% polyethyleneimine using a 96-well Brandel harverster. Four rapid 500 μl washes are performed with chilled Standard Binding Buffer to reduce non-specific binding. Filters are placed in 6 ml scintillation tubes and allowed to dry overnight. The next day, 4 ml of EcoScint scintillation cocktail (National Diagnostics) are added to each tube. The tubes are capped, labeled, and counted by liquid scintillation counting. […] The filter mats are dried, then scintillant is melted onto the filters and the radioactivity retained on the filters is counted in a Microbeta scintillation counter.
(§5) Raw data (dpm) representing total radioligand binding (i.e. specific+non-specific binding) are plotted as a function of the logarithm of the molar concentration of the competitor (i.e. test or reference compound).

[3] = biological target: T2, dopamine D4 (Homo sapiens, UniProt P21917); experiment: Primary radioligand binding assay (NIMH PDSP); conditions: primary radiobinding assay, N-methylspiperone; for D4 (% inh): test concentration or dose not given here
T2 sequence (P21917 1-419): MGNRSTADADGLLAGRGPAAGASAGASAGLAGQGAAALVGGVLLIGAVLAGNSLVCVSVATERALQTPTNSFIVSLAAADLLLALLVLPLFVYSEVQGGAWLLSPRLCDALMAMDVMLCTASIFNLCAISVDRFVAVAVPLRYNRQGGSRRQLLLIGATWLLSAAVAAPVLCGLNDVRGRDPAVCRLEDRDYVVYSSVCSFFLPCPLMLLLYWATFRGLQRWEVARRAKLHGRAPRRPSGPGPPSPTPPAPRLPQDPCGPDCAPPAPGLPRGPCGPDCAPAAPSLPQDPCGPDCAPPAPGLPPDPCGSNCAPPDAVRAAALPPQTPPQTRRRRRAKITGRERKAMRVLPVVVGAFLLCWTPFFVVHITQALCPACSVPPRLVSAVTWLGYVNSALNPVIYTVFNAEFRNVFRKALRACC

[4] = biological target: T3, dopamine D1 (Homo sapiens, UniProt P21728); experiment: Primary radioligand binding assay (NIMH PDSP); conditions: primary radiobinding assay, [3H]SCH233930; note: test concentration or dose not given here
[5] = biological target: 5-HT2A (Homo sapiens, UniProt P28223); experiment: Secondary radioligand binding assay (Ki)
Procedure: as §1, §2, §3, §4, §5

[6] = biological target: 5-HT5A (Homo sapiens, UniProt P47898); experiment: Secondary radioligand binding assay (Ki)
Procedure: as §1, §2, §3, §4, §5

[7] = biological target: 5-HT1D (Homo sapiens, UniProt P28221); experiment: Secondary radioligand binding assay (Ki)
Procedure: as §1, §2, §3, §4, §5

[8] = biological target: T4, α1B (Alpha1B) (Homo sapiens, UniProt P35368); experiment: Secondary radioligand binding assay (Ki)
T4 sequence (P35368 1-520): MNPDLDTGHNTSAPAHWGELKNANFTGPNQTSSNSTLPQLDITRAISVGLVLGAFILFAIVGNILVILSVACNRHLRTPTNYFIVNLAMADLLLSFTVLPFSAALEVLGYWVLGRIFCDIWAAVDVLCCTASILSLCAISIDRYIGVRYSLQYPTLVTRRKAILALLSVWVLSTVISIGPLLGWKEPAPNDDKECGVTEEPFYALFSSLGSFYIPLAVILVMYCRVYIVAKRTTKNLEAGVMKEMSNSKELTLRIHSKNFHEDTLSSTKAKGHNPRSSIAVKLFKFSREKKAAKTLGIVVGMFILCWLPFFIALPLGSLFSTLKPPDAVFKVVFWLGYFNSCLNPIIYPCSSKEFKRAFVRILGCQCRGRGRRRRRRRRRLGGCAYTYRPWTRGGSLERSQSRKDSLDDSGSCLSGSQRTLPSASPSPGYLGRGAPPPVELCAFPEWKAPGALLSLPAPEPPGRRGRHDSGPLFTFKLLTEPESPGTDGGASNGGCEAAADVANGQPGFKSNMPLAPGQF
Procedure: as §3, §4, §5
(§6) Adrenergic Receptors: α1A, α1B, α2A, α2B, α2C, β1, β2, β3
(§7) Membrane Fraction Source: Transiently or stably transfected cell lines (e.g. HEK293, COS, CHO, NIH3T3)
(§8) The method is carried out in the manner described for the serotonin receptor assay above, except where described below. Eleven dilutions (5× assay concentration) of the test and reference (see Table 20) compounds are prepared in the appropriate buffer by serial dilution, as previously described. Radioligand is diluted to five times the assay concentration (see Table 21) in the appropriate buffer.
(§9) The 250 μl reactions are incubated at room temperature and shielded from light (to prevent photolysis of light-sensitive ligands) for 1 hour (for α1 receptors, 40 min for α2 receptors, and 1.5 hours for β receptors), then harvested by rapid filtration onto Whatman GF/B glass fiber filters pre-soaked with 0.3% polyethyleneimine using a 96-well Brandel harverster. Four rapid 500-μl washes are performed with chilled distilled water (for α1 and β receptors) or 0.1% polyethyleneimine (for α2 receptors) to reduce non-specific binding. Filters are placed in 6 ml scintillation tubes and allowed to dry overnight and the samples are treated to obtain data as described above.

[9] = biological target: dopamine D3 (Homo sapiens, UniProt P35462); experiment: Primary radioligand binding assay (NIMH PDSP); conditions: primary radiobinding assay, N-methylspiperone; note: test concentration or dose not given here
[10] = biological target: T1, dopamine D2; experiment: Secondary radioligand binding assay (Ki); conditions: for α1/D2: Table 22: Selectivity of Dopamine D2 over average of α1 Receptors; for α1A/D2 / α1B/D2 / α1D/D2: Table 22: Selectivity of Dopamine D2 over α1 Receptors, ratio of Ki
Procedure: as §3, §4, §5
(§10) Assay Buffers: Dopamine Binding Buffer (50 mM NaCl, 50 mM HEPES-HCl, 5 mM MgCl2, 0.5 mM EDTA, pH 7.4)
as §7
(§11) The method is carried out in the manner described for the serotonin receptor assay above. Eleven dilutions (5× assay concentration) of the test and reference (see Table 19) compounds are prepared in Dopamine Binding Buffer by serial dilution, as previously described. Radioligand is diluted to five times the assay concentration (see Table 20) in Dopamine Binding Buffer.

[11] = biological target: 5-HT1B (Homo sapiens, UniProt P28222); experiment: Secondary radioligand binding assay (Ki)
Procedure: as §1, §2, §3, §4, §5

[12] = biological target: T5, Alpha1D (Homo sapiens, UniProt P25100); experiment: Secondary radioligand binding assay (Ki)
T5 sequence (P25100 1-572): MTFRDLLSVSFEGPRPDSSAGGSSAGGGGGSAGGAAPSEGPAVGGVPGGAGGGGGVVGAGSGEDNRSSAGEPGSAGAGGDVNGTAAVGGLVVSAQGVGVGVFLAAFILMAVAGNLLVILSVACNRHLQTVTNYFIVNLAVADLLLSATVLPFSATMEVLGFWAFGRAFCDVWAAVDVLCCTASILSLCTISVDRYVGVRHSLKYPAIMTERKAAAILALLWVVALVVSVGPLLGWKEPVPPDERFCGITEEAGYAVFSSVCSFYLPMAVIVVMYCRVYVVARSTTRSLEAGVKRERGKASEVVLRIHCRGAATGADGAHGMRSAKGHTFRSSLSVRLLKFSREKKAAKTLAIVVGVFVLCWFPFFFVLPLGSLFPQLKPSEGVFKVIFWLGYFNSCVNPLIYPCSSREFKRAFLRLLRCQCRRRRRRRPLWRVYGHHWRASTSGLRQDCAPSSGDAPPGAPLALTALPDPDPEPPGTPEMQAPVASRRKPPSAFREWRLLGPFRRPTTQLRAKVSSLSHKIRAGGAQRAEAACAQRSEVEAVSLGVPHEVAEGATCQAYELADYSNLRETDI
Procedure: as §3, §4, §5, §6, §7, §8, §9

[13] = biological target: T3, dopamine D1; experiment: Secondary radioligand binding assay (Ki)
Procedure: as §3, §4, §5, §10, §7, §11

[14] = read-out: Experimental Receptor Binding Data-Ki ALPHA_1B, Table 25, GPCR panel
[15] = read-out: Experimental Receptor Binding Data-Ki ALPHA_1D, Table 25, GPCR panel
[16] = read-out: Experimental Receptor Binding Data-Ki D2, Table 25, GPCR panel
[17] = read-out: Experimental Receptor Binding Data-Ki D1, Table 25, GPCR panel

Chain of 5-HT5A (P47898 whole entry, species assumed): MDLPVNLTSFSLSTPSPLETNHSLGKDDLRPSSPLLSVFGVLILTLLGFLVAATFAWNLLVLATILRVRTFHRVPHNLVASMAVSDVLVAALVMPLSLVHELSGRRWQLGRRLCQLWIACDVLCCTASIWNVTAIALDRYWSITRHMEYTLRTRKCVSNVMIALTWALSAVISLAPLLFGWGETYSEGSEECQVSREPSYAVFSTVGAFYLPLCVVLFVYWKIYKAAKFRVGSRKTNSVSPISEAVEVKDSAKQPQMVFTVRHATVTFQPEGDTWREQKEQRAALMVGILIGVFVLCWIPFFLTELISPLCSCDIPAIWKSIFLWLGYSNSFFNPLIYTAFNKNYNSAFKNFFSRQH
Chain of 5-HT1B (P28222 whole entry, species assumed): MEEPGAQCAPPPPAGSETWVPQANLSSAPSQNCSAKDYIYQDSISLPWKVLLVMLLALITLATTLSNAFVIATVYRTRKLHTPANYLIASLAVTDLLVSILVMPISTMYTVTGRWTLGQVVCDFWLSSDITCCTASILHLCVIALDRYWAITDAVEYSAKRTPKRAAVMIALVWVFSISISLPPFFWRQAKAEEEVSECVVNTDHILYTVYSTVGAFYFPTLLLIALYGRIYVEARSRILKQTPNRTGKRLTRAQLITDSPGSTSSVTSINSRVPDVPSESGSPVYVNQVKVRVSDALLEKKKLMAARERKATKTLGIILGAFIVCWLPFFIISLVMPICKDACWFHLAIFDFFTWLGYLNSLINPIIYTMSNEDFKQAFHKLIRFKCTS
Chain of 5-HT1D (P28221 whole entry, species assumed): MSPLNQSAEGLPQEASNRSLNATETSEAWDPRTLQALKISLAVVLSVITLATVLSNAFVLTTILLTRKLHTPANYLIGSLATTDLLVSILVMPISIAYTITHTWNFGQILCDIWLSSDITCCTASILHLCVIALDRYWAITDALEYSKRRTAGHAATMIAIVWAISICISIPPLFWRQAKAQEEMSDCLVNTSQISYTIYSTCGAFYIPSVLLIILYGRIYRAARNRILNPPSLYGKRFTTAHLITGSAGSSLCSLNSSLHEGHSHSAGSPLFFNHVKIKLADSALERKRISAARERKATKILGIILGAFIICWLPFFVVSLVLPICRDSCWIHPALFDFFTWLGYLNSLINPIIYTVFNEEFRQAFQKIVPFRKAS
Chain of 5-HT7 (P34969 whole entry, species assumed): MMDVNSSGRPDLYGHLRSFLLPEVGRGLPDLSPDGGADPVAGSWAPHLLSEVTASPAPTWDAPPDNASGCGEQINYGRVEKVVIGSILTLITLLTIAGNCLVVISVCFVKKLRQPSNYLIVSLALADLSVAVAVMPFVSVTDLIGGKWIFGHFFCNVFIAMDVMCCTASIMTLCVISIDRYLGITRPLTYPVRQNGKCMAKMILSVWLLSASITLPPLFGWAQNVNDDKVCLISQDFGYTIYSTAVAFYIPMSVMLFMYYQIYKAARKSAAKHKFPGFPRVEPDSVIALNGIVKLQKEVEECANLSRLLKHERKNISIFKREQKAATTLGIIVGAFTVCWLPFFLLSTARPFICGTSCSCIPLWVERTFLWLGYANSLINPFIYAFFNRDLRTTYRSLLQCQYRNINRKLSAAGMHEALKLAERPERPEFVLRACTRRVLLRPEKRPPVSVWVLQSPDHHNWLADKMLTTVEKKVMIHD
T3 sequence (P21728 whole entry): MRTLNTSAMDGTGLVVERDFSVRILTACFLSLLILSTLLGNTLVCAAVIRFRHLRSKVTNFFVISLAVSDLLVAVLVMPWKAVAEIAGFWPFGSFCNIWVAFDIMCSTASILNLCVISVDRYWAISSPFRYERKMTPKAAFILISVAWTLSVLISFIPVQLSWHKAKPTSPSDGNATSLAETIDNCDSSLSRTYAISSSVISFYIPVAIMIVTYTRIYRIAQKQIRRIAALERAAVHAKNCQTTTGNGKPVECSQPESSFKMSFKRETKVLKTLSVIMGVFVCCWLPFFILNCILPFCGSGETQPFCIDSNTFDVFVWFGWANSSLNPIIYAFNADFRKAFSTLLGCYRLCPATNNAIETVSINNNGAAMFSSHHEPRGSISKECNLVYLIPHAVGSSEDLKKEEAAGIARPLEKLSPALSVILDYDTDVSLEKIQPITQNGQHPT
T1 sequence (P14416 whole entry, species assumed): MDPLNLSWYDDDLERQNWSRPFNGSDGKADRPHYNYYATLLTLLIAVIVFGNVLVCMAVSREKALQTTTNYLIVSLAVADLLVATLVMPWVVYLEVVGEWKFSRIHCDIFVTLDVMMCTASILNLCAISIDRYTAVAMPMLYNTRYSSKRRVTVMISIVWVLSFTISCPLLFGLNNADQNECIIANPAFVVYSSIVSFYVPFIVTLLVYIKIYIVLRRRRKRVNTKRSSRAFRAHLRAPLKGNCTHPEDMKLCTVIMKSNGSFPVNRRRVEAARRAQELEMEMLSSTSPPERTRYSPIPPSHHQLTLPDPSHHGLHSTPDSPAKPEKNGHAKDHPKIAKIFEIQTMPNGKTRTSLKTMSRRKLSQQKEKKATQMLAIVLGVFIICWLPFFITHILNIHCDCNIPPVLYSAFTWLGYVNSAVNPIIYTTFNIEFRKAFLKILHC
Chain of 5-HT2A (P28223 whole entry, species assumed): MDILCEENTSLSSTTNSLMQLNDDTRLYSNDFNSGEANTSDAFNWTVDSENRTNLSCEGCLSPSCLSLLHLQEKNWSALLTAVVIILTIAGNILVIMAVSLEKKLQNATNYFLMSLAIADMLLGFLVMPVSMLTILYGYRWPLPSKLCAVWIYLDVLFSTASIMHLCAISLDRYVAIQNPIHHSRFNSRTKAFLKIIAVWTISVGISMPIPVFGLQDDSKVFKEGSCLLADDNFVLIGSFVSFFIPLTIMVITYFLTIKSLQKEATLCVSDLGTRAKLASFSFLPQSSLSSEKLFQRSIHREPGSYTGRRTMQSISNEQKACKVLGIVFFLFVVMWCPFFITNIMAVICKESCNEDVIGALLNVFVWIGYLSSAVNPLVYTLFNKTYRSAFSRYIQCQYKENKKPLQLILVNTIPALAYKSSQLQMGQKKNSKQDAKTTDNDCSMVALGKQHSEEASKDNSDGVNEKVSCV
Chain of dopamine D3 (P35462 whole entry): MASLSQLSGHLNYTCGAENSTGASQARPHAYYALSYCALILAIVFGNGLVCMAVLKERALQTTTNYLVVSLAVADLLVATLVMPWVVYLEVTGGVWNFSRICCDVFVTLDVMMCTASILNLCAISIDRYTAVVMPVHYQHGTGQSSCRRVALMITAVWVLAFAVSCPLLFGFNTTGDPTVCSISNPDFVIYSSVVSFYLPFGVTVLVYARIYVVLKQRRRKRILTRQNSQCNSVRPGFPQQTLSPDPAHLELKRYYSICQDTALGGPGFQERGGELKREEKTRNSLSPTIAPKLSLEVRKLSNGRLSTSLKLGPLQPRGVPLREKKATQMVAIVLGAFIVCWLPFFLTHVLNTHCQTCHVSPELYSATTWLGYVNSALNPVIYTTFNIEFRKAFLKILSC

Compound | D2 (% inh) [1] | Ki [2] | D4 (% inh) [3] | D1 (% inh) [4] | Ki [5] | Ki [6] | Ki [7] | Ki [8, 14] | Ki ([8]; read-out: Kiα1B) | D3 (% inh) [9] | Ki [10] | α1/D2 [10] | α1A/D2 [10] | α1B/D2 [10] | α1D/D2 [10] | Ki [11] | Ki [12, 15] | Ki ([12]; read-out: Kiα1D) | Ki [10, 16] | Ki ([10]; read-out: KiD2) | further results
COc1ccc2c(c1)C(=O)N(CCCN1CCN(c3ccccc3OC)CC1)C2 [GFR-VII-273] | 85 % inh | 0.545 µM | 99.6 % inh | 49.5 % inh | 0.956 µM | 2.9 µM | 1 µM | 0.323 µM | 0.323 µM | 94.1 % inh | 0.812 µM | 0.12 | 0.080 | 0.398 | 0.100 | 0.362 µM | 0.0811 µM | 0.0811 µM | – | – | –
COc1ccc2c(c1)C(=O)N(CCN1CCN(c3ccccc3OC)CC1)C2 [GFR-VII-280-HCl] | 69.8 % inh | 0.529 µM | 95.9 % inh | 30 % inh | – | 2.49 µM | 0.176 µM | – | – | 95.7 % inh | 1.74 µM | 0.008 | 0.005 | 0.017 | 0.003 | 0.378 µM | – | – | – | – | Ki [8]: 0.0291 µM; Ki [12]: 0.0051 µM
COc1ccc2c(c1)C(=O)N(CCN1CCN(c3ccccc3OC)CC1)C2 [GFR-VII-280] | 66.6 % inh | – | 97.2 % inh | 29.3 % inh | – | – | – | 0.0387 µM | 0.0387 µM | 98.1 % inh | – | 0.014 | 0.010 | 0.023 | 0.008 | – | 0.0124 µM | 0.0124 µM | 1.65 µM | 1.65 µM | Ki ([6]; read-out: Experimental Receptor Binding Data-Ki 5HT5A, Table 25, GPCR panel): 2.15 µM; Ki ([7]; read-out: Experimental Receptor Binding Data-Ki 5HT1D, Table 25, GPCR panel): 0.139 µM; Ki ([11]; read-out: Experimental Receptor Binding Data-Ki 5HT1B, Table 25, GPCR panel): 0.306 µM
COc1cc2c(cc1OC)C(=O)N(CCCCN1CCN(c3ccccc3OC)CC1)C2 [GFR-VII-285] | 96.2 % inh | 0.228 µM | 91.6 % inh | 91.3 % inh | 0.27 µM | 2.44 µM | 0.298 µM | 0.0193 µM | 0.0193 µM | 100.5 % inh | – | 0.053 | 0.006 | 0.124 | 0.028 | 0.13 µM | 0.0044 µM | 0.0044 µM | 0.156 µM | 0.156 µM | Ki [13, 17]: 0.531 µM
COc1ccc2c(c1)CN(CCCN1CCN(c3ccccc3OC)CC1)C2=O [GFR-VII-290] | 82.1 % inh | 0.732 µM | 97.3 % inh | 54.5 % inh | 1 µM | 2.47 µM | 0.829 µM | 0.608 µM | 0.608 µM | 94.7 % inh | – | 0.177 | 0.044 | 0.445 | 0.041 | – | 0.056 µM | 0.056 µM | 1.37 µM | 1.37 µM | Ki [13, 17]: 2.73 µM
CC1Cc2ccccc2N1C(=O)CN1CCN(Cc2ccccc2)CC1 (stereo not shown) [STT-00185638, 2-[-4-(benzyl)-piperazin-1-yl]-1-(2-methy-2,3-dihydro-indol-1-yl)-ethanone] | 66.2 % inh | 4.36 µM | 99.4 % inh | 50.8 % inh | – | 6.77 µM | – | – | – | 63.6 % inh | 2.46 µM | – | – | – | – | – | – | – | – | – | Ki [13]: 6.36 µM
